Where two headings read alike, the source gives them in different places.
Legend:
[1] = test system: S. Typhimurium ATCC 14028 (JSG210) biofilms; test: Biofilm inhibition assay (crystal violet staining); type: cell-based, Salmonella enterica serovar Typhimurium; settings: for IC50: inhibition of S. Typhimurium biofilm formation, compound present 24 h, crystal violet OD570, mean ± standard deviation
Description: Inhibition of biofilm formation is assessed by growing bacteria in a 96-well plate in the absence (control) or presence of test compounds. After 24 hours, the wells are washed to remove planktonic bacteria, and the remaining surface attached bacteria (biofilm) are stained with crystal violet (CV). The wells are then washed again to remove excess CV, and the remaining CV is solubilized with a solution of acetic acid and then quantified by spectrophotometry at 570 nm. A dose response curve is then constructed from which an IC50 value is determined.
(§1) Salmonella biofilm growth and crystal violet staining. […] For biofilm assays, individual bacterial colonies were picked and used to inoculate LB broth for overnight liquid cultures, which were grown at 37° C. with aeration using a rotating drum. […] Biofilm plates were then submerged in dH2O to wash away any remaining non-adherent bacteria and heat fixed (1h, 60° C.). Biofilms were then stained with a 33% crystal violet solution (6 mL PBS, 3.3 mL crystal violet, 333 μL methanol, 333 μL isopropanol) for 5 min. and washed twice by submerging in dH2O before releasing the bound dye with 33% glacial acetic acid. Biofilm growth was then quantified by measuring the optical density of the solubilized dye at 570 nm using a spectrophotometer (Molecular Devices, SpectraMax M5).
(§2) Biofilm Inhibition and Dispersion Assays and IC50/EC50 Determination. […] Biofilms were then grown as described above for a total of 24 h prior to CV staining. […] Biofilms were then incubated for an additional 24 h in the presence of compounds prior to CV staining. IC50/EC50 values were calculated by plotting normalized compound activity (percent biofilm formed and percent remaining, respectively) as a function of log10 compound concentration and fitting a dose response curve (log[inhibitor] vs. normalized response, variable slope).

[2] = test system: S. Typhimurium ATCC 14028 (JSG210) biofilms; test: Biofilm dispersion assay on pre-formed biofilms (crystal violet staining); type: cell-based, Salmonella enterica serovar Typhimurium; settings: 50% dispersion of biofilms established 24 h, then 24 h with compound, crystal violet OD570; mean ± standard deviation
Description: as §1, §2

[3] = test system: S. Typhimurium ATCC 14028; test: Murine model of chronic Salmonella gallbladder carriage, combination with ciprofloxacin; type: in vivo, 129X1/SvJ NRAMP+/+ mice; settings: for reduction in bacterial burden in the gallbladder: 5 mg/kg/day compound + 1 mg/kg/day cipro I.P., 15 dpi
Description: FIGS. 5A-5F provide graphs showing Enumeration of Salmonella in the gallbladder, liver, and spleen of infected mice at 15 dpi. […] Dotted lines represent the limit of detection where applicable; significant differences among the bacterial burden of treatment groups were determined via one-way ANOVA with the Tukey correction for multiple comparisons; ns non-significant, * p<0.05, ** p<0.01, *** p<0.001, **** p<0.0001.
Murine model of chronic Salmonella gallbladder carriage and evaluation of compound therapeutic efficacy in combination with ciprofloxacin. A total of 46 adult 129X1/SvJ NRAMP^+/+ mice (The Jackson Laboratory, Bar Harbour, ME) were used in this study. […] Mice were randomly assigned to treatment groups in two separate experiments. […] Treatments were administered daily via I.P. injection from days 5-15 post-infection. On day 15 post-infection, mice were euthanized and gallbladders, livers, and spleens were removed and homogenized in a volume of 1 mL sterile PBS using a TissueLyser LT bead mill (Qiagen, Valencia, CA). Tissue homogenates were serially diluted in PBS, plated onto LB agar, and incubated at 37° C. for 16h in order to quantify bacterial burden via CFU enumeration.

[4] = test system: S. Typhimurium ATCC 14028; settings: cited from earlier work
[5] = 5 mg/kg/day 7d + 4 mg/kg/day cipro, I.P., days 5-15
[6] = 2 mg/kg/day cipro alone, I.P., days 5-15 post-infection

| SMILES | IC50 [1] [µM] | EC50 [2] [µM] | reduction in bacterial burden in the gallbladder ([3]; days 5-15 post-infection) | also measured |
| --- | --- | --- | --- | --- |
| CN(Cc1ccsc1)CC1CCN(CCc2ccccc2F)CC1 [Compound 1] | 5.7 | 829 | ~2 log-fold | reduction in the bacterial burden in the gallbladder ([4]; compound 1 10 mg/kg/day + ciprofloxacin 1.0 mg/kg/day (Sandala et al., 2020)): 3-4.5 log; reduction of bacterial burden in the gallbladder ([4]; compound 1 at 10 mg/kg/day, previous experiments (Sandala et al., 2020)): several logs |
| CN(Cc1ccsc1)CC1CCN(CCc2cccc(Cl)c2Cl)CC1 [Compound 7b] | – | – | ~1.5 log-fold | – |
| CN(Cc1ccsc1)CC1CCN(CCc2ccc(Br)c(Br)c2)CC1 [Compound 7d] | – | – | 4.5-5 log-fold | CFUs recovered in all organs (gallbladder, liver, spleen) [3, 5]: neared the limit of detection; gallbladder bacteria versus 4 mg/kg/day cipro alone [3, 5]: additional significant reduction; reduction of bacterial burden in the gallbladder ([3]; compound with ciprofloxacin): 4.5-5 logs |
| CN(Cc1ccsc1)CC1CCN(Cc2ccc(I)cc2)CC1 [Compound 8f] | 5.7 ± 2.9 | 77 ± 3 | – | – |
| Cc1ccccc1CCN1CCC(CN(C)Cc2ccsc2)CC1 [Compound 8g] | 6.3 ± 2.3 | 247 ± 11 | – | – |
| CC(C)c1ccc(CCN2CCC(CN(C)Cc3ccsc3)CC2)cc1 [Compound 8h] | 2.3 | 123 ± 7 | – | – |
| CN(Cc1ccsc1)CC1CCN(CCc2cccc(-c3ccccc3)c2)CC1 [Compound 8i] | 1.8 | 31 ± 4 | – | fold improvement of IC50 versus comparator ([1]; 6a vs 4c, 6b vs 4d, 6g vs 4c and 4d, 8i vs 8b): two-fold |
| CN(Cc1ccsc1)CC1CCN(CCc2ccc(-c3ccccc3)cc2)CC1 [Compound 8j] | – | – | 3.5-4 log-fold | – |
| CN(Cc1ccsc1)CC1CCN(CCc2cccc3ccccc23)CC1 [Compound 8k] | 2.5 | 28 ± 5 | – | – |
| O=C(O)c1cn(C2CC2)c2cc(N3CCNCC3)c(F)cc2c1=O [cipro, ciprofloxacin, reference compound] | – | – | – | bacteria recovered from the liver and spleen [3, 6]: reduce the number of bacteria recovered; effect on bacterial burden within the gallbladder [3, 6]: no statistically significant effect; reduction of bacterial gallbladder burden ([3]; 4 mg/kg/day cipro alone, I.P., days 5-15 post-infection): 3-4 logs |
